Reference: US20080118475A1, “Model System for Testing the Efficacy of Pharmaceutical Preparation on Inflammatory Processes in the Nervous System” (KEYNEUROTEK AG, priority 2004, published 2008)
Entries after “also recorded” stand apart in the source; their conditions may differ.

B1: M-CSF: pro-inflammatory cytokin that activates microglia (protein, UniProt P09603 33-554, looked up)
Macrophage colony-stimulating …: EEVSEYCSHMIGSGHLQSLQRLIDSQMETSCQITFEFVDQEQLKDPVCYLKKAFLLVQDIMEDTMRFRDNTPNAIAIVQLQELSLRLKSCFTKDYEEHDKACVRTFYETPLQLLEKVKNVFNETKNLLDKDWNIFSKNCNNSFAECSSQDVVTKPDCNCLYPKAIPSSDPASVSPHQPLAPSMAPVAGLTWEDSEGTEGSSLLPGEQPLHTVDPGSAKQRPPRSTCQSFEPPETPVVKDSTIGGSPQPRPSVGAFNPGMEDILDSAMGTNWVPEEASGEASEIPVPQGTELSPSRPGGGSMQTEPARPSNFLSASSPLPASAKGQQPADVTGTALPRVGPVRPTGQDWNHTPQKTDHPSALLRDPPEPGSPRISSLRPQGLSNPSTLSAQPQLSRSHSSGSVLPLGELEGRRSTRDRRSPAEPEGGPASEGAARPLPRFNSVPLTDTGHERQSEGSFSPQLQESVFHLLVPSVILVLLAVGGLLFYRWRRRSHQEPQRADSPLEQPEGSPLTQDDRQVELPV

Test system: organo-typical cultures of the hippocampus
Assay: Inflammation-provoked degeneration of organo-typical hippocampal slice cultures, propidium iodide fluorescence
Assay type: cell-based, Sprague-Dawley rats
Conditions: for degeneration of the tissue / neurons (propidium iodide staining), cytokin in combination with LPS: cytokin plus LPS (200 μm/ml [sic] in the source, 200 ηg/ml), 48 hours, M-CSF 10 ηg/ml, IFNy 30 ηg/ml, GM-CSF 1 ηg/ml; for protection of the neural tissue against degeneration (propidium iodide staining): reagent incubated over 48 hours together with LPS (200 ηg/ml) and GM-CSF (1 ηg/ml)
Method: For the preparation of organo-typical cultures of the hippocampus, 7 to 8 day-old Sprague-Dawley rats were used. From the isolated hippocampus of these animals ca. 400 μm thick slices were prepared, each approximately comprising 20 cell layers. […] The slices were able to be cultured in 6-pore culture plates for up to 3 weeks through changing the medium below the membrane.
All the incubations were carried out in a medium that contained a minimum of 50% of essential medium/HEPES, 25% of Hank's balanced salt solution and 25% of heat-inactivated horse serum.
The degeneration of the tissue was rendered visible by means of a propidium iodide-fluorescence of the cells, which, because of the injury sustained, could no longer prevent, […], diffusion into the cell nucleus and staining of the DNA. Consequently, the red fluorescence above a threshold value was evaluated as the signal for the degeneration of cells. The degree of degeneration per slice was expressed as the percentage of the total surface that the red values lay above the threshold.
Here, both reagents were incubated over 48 hours with LPS and GM-CSF. Thus, for working in this assay, both steroidal as well as non-steroidal reagents were used.
Organo-typical cultures were incubated with LPS either alone or in combination with the pro-inflammatory cytokins GM-CSF and M-CSF over 48 hours. The injury to the tissue (cell mortality) was established by means of propidium iodide staining (A) and quantified by means of an automated picture analysis (B).

Row | Molecule | degeneration of the tissue / neurons (propidium iodide staining), cytokin in combination with LPS | protection of the neural tissue against degeneration (propidium iodide staining) | degeneration / injury of the tissue (propidium iodide staining), substance alone (incubated alone over 48 hours)
1 | IFNy: pro-inflammatory cytokin that activates the microglia and can induce MHC expression | very strong degeneration of the tissue |  | 
2 | CC(C)Cc1ccc(C(C)C(=O)O)cc1 (stereo not drawn) [iboprufen, reference compound] |  | protective activity | 
3 | GM-CSF: Granulocyte Macrophage Colony-Stimulating Factor, pro-inflammatory cytokin | dramatic degeneration of neurons; also recorded: maximum injury |  | did not lead to any detectable injury
4 | CC(=O)Oc1ccccc1C(=O)O [acetyl salicylic acid, reference compound] |  | complete protection of the neural tissue; also recorded: protected | 
5 | B1 | dramatic degeneration of neurons; also recorded: less precipitous |  | 
